Data published in patent US20100183546A1, “Method for Increasing CD8+ Cytotoxic T Cell Responses and for Treating Multiple Sclerosis” (Baylor College of Medicine, priority 2003, published 2010).

tested on: CD8+ T cells in CD4-depleted PBMC; test: Precursor frequency analysis of CD8+ T cells recognizing MBP-derived peptides (split-well method, [3H]-thymidine proliferation); assay type: cell-based, human; conditions: MS patients vs healthy controls; p<0.05 for MBP111-119 and MBP87-95

Row | Substance | frequency of peptide-recognizing CD8+ T cells in MS patients compared with control subjects
1 | MBPVVHFFKNIV [SEQ ID NO. 1, Fragment of human MBP, amino acids 87-95] | considerably higher
2 | SLSRFSWGA [SEQ ID NO. 2, Fragment of human MBP, amino acids 111-119] | considerably higher
3 | immunodominant epitope (residues 830-838) of tetanus toxoid: synthetic peptide corresponding to an immunodominant peptide of tetanus toxoid (residues 830-838), used as control (QYIKANSKF; UniProt P04958 830-838, looked up, fragment) [reference compound] | did not differ significantly
